The values that follow come from US7943646B2, “Benzamidine derivative, process for the preparation thereof and pharmaceutical composition comprising same” (Dong Wha Pharmaceutical Co., Ltd., priority 2006, dated 2011).

The subject of one assay is osteoclast differentiation. Nature of the assay: Inhibitory effect on osteoclast differentiation, co-culture of bone marrow cells and osteoblast, TRAP staining. Format: cell-based, mouse. The following applies: Mus musculus, Osteoclast, 168 h, read-out: inhibitory effect on osteoclast differentiation(%). As to the method: The effect of the benzamidine derivative of the present invention on osteoclast formation and differentiation process was evaluated via co-culture with an osteoblast.
Tibia was aseptically ectomized from male 6 to 8-week-old ddY mice to harvest bone marrow cells by using a syringe (21G, Korea Green Cross). The bone marrow cells were suspended in 5 mL of an α-MEM medium (Gibco BRL Co., added with sodium bicarbonate (2.0 g/L), streptomycin (100 mg/L) and penicillin ([…]), filtered and then sterilized). The harvested cells were centrifuged at 600×g for 5 mins to collect the whole quantity. To remove the red blood cells in the bone marrow cells, 3 mL of Tris HCl (0.83% NH4Cl, pH 7.5) was added and well mixed. After centrifuging above cells, the numbers of the eukaryotic cells in the harvested bone marrow cells were counted and then immediately used for a co-culture system.
The progenitor bone and the parietal bone were aseptically ectomized from 1 to 2-day-old neonate ICR mice, washed with a phosphate butter solution (PBS) and treated with a mixed enzyme solution (of 0.2% collagenase and 0.1% dispase) sequentially (10, 10, 10, 20, 20 and 20 min), and then 3 to 6 groups of the cells which comprise lot of cells having the characteristics of the osteoblast were intensively collected and washed with a medium (a serum-free α-MEM). The washed cells were cultured in the α-MEM medium containing 10% FBS for 2 to 3 days. After subculturing, the collected cells were used for this experiment, and diluted to a concentration of 1×10^6 cells/mL for storage at −70[…].
The benzamidine derivative of the present invention was dissolved in a sterile distilled water or ethanol to dilute to a desired concentration. The final volume of the sample added to the cell culture medium was set at a ratio of 1:1000.
The bone marrow cells prepared in the above 1-1 and the osteoblast were co-cultured for osteoclast differentiation. Both the bone marrow cells (25,000 cells/cm^2) and the osteoblast (10,000 cells/cm^2) were plated in a 96-well plate using α-MEM medium containing FBS, and then cultured with the samples to be tested for 7 days. Differentiation factors, such as dexamethasone (10^−7 M) and vitamin D3 (10^−8 M), were also co-added to the medium from the first day of cultivation. The medium was changed with a fresh media containing a mixture of the samples and the differentiation factors every 2 to 3 days.
TRAP was used as a marker to measure the matured osteoclast in consideration of its characteristics showing a positive reaction to a TRAP staining solution. The TRAP staining solution was prepared in such the manner that 5 mg of naphtol AS-MS phosphate (sigma N-4875) as a substrate, and 25 mg of a coloring agent (Fast Red Violet LB salt) were dissolved in N,N-dimethylformamide (about 0.5 mL). 50 ml of a 0.1 N NaHCO3 buffer solution containing 50 mM tartaric acid (pH 5.0) was added thereto, and the mixture was stored at a refrigerator prior to use as a staining solution.
After culturing the cells for 7 days, the medium was removed from the wells, the cells were once washed with PBS, and then fixed with PBS containing 10% formalin for 2 to 5 min. The cells were fixed again in a mixed solution of ethanol and acetone (1/1) for about 1 min, and dried off. The cells were further treated by the TRAP staining solution for 15 mins and washed with water and dried off. The osteoclasts with 3 or more nuclei showing a TRAP-positive reaction were counted under a microscopic examination. Each of tests was confirmed over at least three times. The inhibitory effect on osteoclast differentiation of each experimental group, relative to negative controls, was expressed as a percentage (%).
In the case of `Cc1nc(-c2ccc(OCCCCCOc3ccc(C(=N)NO)cc3)cc2)c(CCNCCN2CCOCC2)s1` [Example 4, N-hydroxy-4-[5-(4-{2-methyl-5-[2-(2-morpholin-4-yl-ethylamino)-ethyl]-thiazol-4-yl}-phenoxy)-pentyloxy]-benzamidine], the inhibition at 1 µM was 72.8%.

Turning to `Cc1nc(-c2ccc(OCCCCCOc3ccc(C(=N)NO)cc3)cc2)c(CCNC(C)C)s1` [Example 6, N-hydroxy-4-(5-{4-[5-(2-isopropylamino-ethyl)-2-methyl-thiazol-4-yl]-phenoxy}-pentyloxy)-benzamidine], the inhibition at 1 µM is 59%.

As to `Cc1nc(-c2ccc(OCCCCCOc3ccc(C(=N)NO)cc3)cc2)c(CCn2ccnc2)s1` [Example 9, N-hydroxy-4-(5-{4-[5-(2-imidazol-1-yl-ethyl)-2-methyl-thiazol-4-yl]-phenoxy}-pentyloxy)-benzamidine], the inhibition at 1 µM was 91.7%.

Consider `CCN(CC)CCc1sc(C)nc1-c1ccc(OCCCCCOc2ccc(C(=N)NO)cc2)cc1` [Example 11, N-hydroxy-4-(5-{4-[5-(2-diethylamino-ethyl)-2-methyl-thiazol-4-yl]-phenoxy}-pentyloxy)-benzamidine], for which the inhibition at 1 µM worked out at 70%.

In the case of `Cc1nc(-c2ccc(OCCCCCOc3ccc(C(=N)NO)cc3)cc2)c(CCN(CCO)CCO)s1` [Example 12, N-hydroxy-4-{5-[4-(5-{2-[bis-(2-hydroxy-ethyl)-amino]-ethyl)-2-methyl-thiazol-4-yl)-phenoxy]-pentyloxy}-benzamidine], the inhibition at 1 µM turned out to be 56%.

For the compound `Cc1nc(-c2ccc(OCCCCCOc3ccc(C(=N)NO)cc3)cc2)c(CCN2CC(C)OC(C)C2)s1` (stereo not drawn) [Example 14, N-hydroxy-4-[5-(4-{5-[2-(2,6-dimethyl-morpholin-4-yl)-ethyl]-2-methyl-thiazol-4-yl}-phenoxy)-pentyloxy]-benzamidine], the inhibition at 1 µM stood at 100%.

On to `N=C(NO)c1ccc(OCCCCCOc2ccc(-c3nc(N)sc3CCN3CCOCC3)cc2)cc1` [Example 16, N-hydroxy-4-(5-{4-[2-amino-5-(2-morpholin-4-yl-ethyl)-thiazol-4-yl]-phenoxy}-pentyloxy)-benzamidine], for which the inhibition at 1 µM came out at 51%.

With `Cc1nc(-c2ccc(OCCCCCOc3ccc(C(=N)NO)cc3)cc2)c(CCNCCN(C)C)s1` [Example 17, N-hydroxy-4-[5-(4-{5-[2-(2-dimethylamino-ethylamino)-ethyl]-2-methyl-thiazol-4-yl}-phenoxy)-pentyloxy]-benzamidine], the inhibition at 1 µM worked out at 40%.

In the case of `COCCN(CCOC)CCc1sc(C)nc1-c1ccc(OCCCCCOc2ccc(C(=N)NO)cc2)cc1` [Example 20, N-hydroxy-4-{5-[4-(5-{2-[bis-(2-methoxy-ethyl)-amino]-ethyl}-2-methyl-thiazol-4-yl)-phenoxy]-pentyloxy}-benzamidine], the inhibition at 1 µM worked out at 94%.

With `CN1CCN(CCc2sc(-c3cccnc3)nc2-c2ccc(OCCCCCOc3ccc(C(=N)NO)cc3)cc2)CC1` [Example 24, N-hydroxy-4-[5-(4-{5-[2-(4-methyl-piperazin-1-yl)-ethyl]-2-pyridine-3-yl-thiazol-4-yl}-phenoxy)-pentyloxy]-benzamidine], the inhibition at 1 µM came out at 86%.

Take `N=C(NO)c1ccc(OCCCCCOc2ccc(-c3nc(-c4cccnc4)sc3CCN3CCSCC3)cc2)cc1` [Example 25, N-hydroxy-4-(5-{4-[2-pyridine-3-yl-5-(2-thiomorpholin-4-yl-ethyl)-thiazol-4-yl]-phenoxy}-pentyloxy)-benzamidine]: the inhibition at 1 µM came out at 65%.

On to `N=C(NO)c1ccc(OCCCCCOc2ccc(-c3nc(-c4cccnc4)sc3CCn3ccnc3)cc2)cc1` [Example 26, N-hydroxy-4-(5-{4-[5-(2-imidazol-1-yl-ethyl)-2-pyridine-3-yl-thiazol-4-yl]-phenoxy}-pentyloxy)-benzamidine], for which the inhibition at 1 µM amounted to 24%.

For the compound `CC(C)c1nc(-c2ccc(OCCCCCOc3ccc(C(=N)NO)cc3)cc2)c(CCn2ccnc2)s1` [Example 29, N-hydroxy-4-(5-{4-[5-(2-imidazol-1-yl-ethyl)-2-isopropyl-thiazol-4-yl]-phenoxy}-pentyloxy)-benzamidine], the inhibition at 1 µM is 85%.

Staying with this assay, now noted: Mus musculus, Osteoclast, 168 h; 1 μm; 7 days co-culture; TRAP-positive osteoclasts with 3 or more nuclei, relative to negative controls; read-out: inhibitory effect on osteoclast differentiation(%).
`Cc1nc(-c2ccc(OCCCCCOc3ccc(C(=N)NO)cc3)cc2)c(CCN2CCCCC2)s1` [Example 3, N-hydroxy-4-(5-{4-[2-methyl-5-(2-piperidin-1-yl-ethyl)-thiazol-4-yl]-phenoxy}-pentyloxy)-benzamidine]: the inhibition at 1 µM amounted to 90.7%.

`Cc1nc(-c2ccc(OCCCCCOc3ccc(C(=N)NO)cc3)cc2)c(CCNCCCn2ccnc2)s1` [Example 5, N-hydroxy-4-[5-(4-{5-[2-(3-imidazol-1-yl-propylamino)-ethyl]-2-methyl-thiazol-4-yl}-phenoxy)-pentyloxy]-benzamidine]: the inhibition at 1 µM was 93.5%.

Take `Cc1nc(-c2ccc(OCCCCCOc3ccc(C(=N)NO)cc3)cc2)c(CCNCCCOC(C)C)s1` [Example 7, N-hydroxy-4-[5-(4-{5-[2-(3-isopropoxy-propylamino)-ethyl]-2-methyl-thiazol-4-yl}-phenoxy)-pentyloxy]-benzamidine]: the inhibition at 1 µM was found to be 48%.

For the compound `Cc1nc(-c2ccc(OCCCCCOc3ccc(C(=N)NO)cc3)cc2)c(CCNC2CCCCC2)s1` [Example 10, N-hydroxy-4-(5-{4-[5-(2-cyclohexylamino-ethyl)-2-methyl-thiazol-4-yl]-phenoxy}-pentyloxy)-benzamidine], the inhibition at 1 µM is 55%.

Regarding `Cc1nc(-c2ccc(OCCCCCOc3ccc(C(=N)NO)cc3)cc2)c(CCN(C(C)C)C(C)C)s1` [Example 13, N-hydroxy-4-(5-{4-[5-(2-diisopropylamino-ethyl)-2-methyl-thiazol-4-yl]-phenoxy}-pentyloxy)-benzamidine], the inhibition at 1 µM was found to be 43%.

For the compound `Cc1nc(-c2ccc(OCCCCCOc3ccc(C(=N)NO)cc3)cc2)c(CCN2CCSCC2)s1` [Example 15, N-hydroxy-4-(5-{4-[2-methyl-5-(2-thiomorpholin-4-yl-ethyl)-thiazol-4-yl]-phenoxy}-pentyloxy)-benzamidine], the inhibition at 1 µM was 99%.

Regarding `Cc1nc(-c2ccc(OCCCCCOc3ccc(C(=N)NO)cc3)cc2)c(CCNC(C)(C)C)s1` [Example 21, N-hydroxy-4-(5-{4-[5-(2-tert-butylamino-ethyl)-2-methyl-thiazol-4-yl]-phenoxy}-pentyloxy)-benzamidine], the inhibition at 1 µM was found to be 58%.

As to `Cc1nc(-c2ccc(OCCCCCOc3ccc(C(=N)NO)cc3)cc2)c(CCNCC(C)C)s1` [Example 22, N-hydroxy-4-(5-{4-[5-(2-isobutylamino-ethyl)-2-methyl-thiazol-4-yl]-phenoxy}-pentyloxy)-benzamidine], the inhibition at 1 µM amounted to 61%.

On to `N=C(NO)c1ccc(OCCCCCOc2ccc(-c3nc(-c4cccnc4)sc3CCN3CCOCC3)cc2)cc1` [Example 23, N-hydroxy-4-(5-{4-[5-(2-morpholin-4-yl-ethyl)-2-pyridine-3-yl-thiazol-4-yl]-phenoxy}-pentyloxy)-benzamidine], for which the inhibition at 1 µM was found to be 91%.

In the case of `CC(C)c1nc(-c2ccc(OCCCCCOc3ccc(C(=N)NO)cc3)cc2)c(CCN2CCN(C)CC2)s1` [Example 28, N-hydroxy-4-[5-(4-{2-isopropyl-5-[2-(4-methyl-piperazin-1-yl)-ethyl]-thiazol-4-yl}-phenoxy)-pentyloxy]-benzamidine], the inhibition at 1 µM came to 90%.

With `CC(C)c1nc(-c2ccc(OCCCCCOc3ccc(C(=N)NO)cc3)cc2)c(CCNCCN2CCOCC2)s1` [Example 30, N-hydroxy-4-[5-(4-{2-isopropyl-5-[2-(2-morpholin-4-yl-ethylamino)-ethyl]-thiazol-4-yl}-phenoxy)-pentyloxy]-benzamidine], the inhibition at 1 µM was determined as 78%.
